Source: patent US12559492B2, “BRAF degraders” (C4 Therapeutics, Inc., priority 2020, dated 2026)

Biological target: BRAF^V600E protein (Homo sapiens, UniProt P15056, V600E)
Assay: HiBiT cellular BRAF V600E degradation assay
Type: cell-based
Settings: 24 h incubation; for DC50: A375.10 cells (HiBiT tag knocked in at N-terminal of BRAF V600E), concentration at which 50% of total cellular BRAF V600E is degraded; for Emax: A375.10 cells, Emax = amount of residual protein remaining in the cell after compound treatment, read-out: HiBit 24 h Emax

BRAF^V600E protein, sequence (P15056 whole entry V600E): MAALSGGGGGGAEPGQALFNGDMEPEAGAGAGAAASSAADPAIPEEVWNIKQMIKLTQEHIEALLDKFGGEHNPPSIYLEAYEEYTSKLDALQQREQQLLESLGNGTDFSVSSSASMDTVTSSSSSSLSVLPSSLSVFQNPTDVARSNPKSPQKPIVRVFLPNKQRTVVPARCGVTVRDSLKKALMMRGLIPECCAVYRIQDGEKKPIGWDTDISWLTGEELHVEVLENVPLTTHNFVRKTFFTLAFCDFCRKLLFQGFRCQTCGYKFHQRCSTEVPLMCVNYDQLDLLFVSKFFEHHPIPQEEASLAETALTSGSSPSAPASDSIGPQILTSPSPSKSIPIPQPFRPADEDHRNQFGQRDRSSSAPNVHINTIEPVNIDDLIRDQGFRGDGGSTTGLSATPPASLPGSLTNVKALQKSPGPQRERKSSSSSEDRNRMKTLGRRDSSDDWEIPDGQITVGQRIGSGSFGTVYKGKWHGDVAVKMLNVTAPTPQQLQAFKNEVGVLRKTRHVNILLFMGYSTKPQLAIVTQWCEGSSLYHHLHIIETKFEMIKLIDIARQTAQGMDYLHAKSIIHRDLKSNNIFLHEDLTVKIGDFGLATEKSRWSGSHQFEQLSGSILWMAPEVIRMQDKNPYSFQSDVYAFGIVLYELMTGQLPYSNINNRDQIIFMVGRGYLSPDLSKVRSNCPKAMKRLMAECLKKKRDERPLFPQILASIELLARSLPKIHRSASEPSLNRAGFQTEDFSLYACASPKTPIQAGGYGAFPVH

Row | Compound | DC50 [nM] | Emax [%]
1 | CCN(C)S(=O)(=O)Nc1ccc(F)c(C(=O)c2c[nH]c3ncc(-c4ccc(N5CCN(C(=O)CC6(O)CCN(c7ccc(N[C@H]8CCC(=O)NC8=O)cc7F)CC6)CC5)cc4)cc23)c1F [Example 179, 5-[4-[4-[2-[1-[4-[[(3S)-2,6-dioxo-3-piperidyl]amino]-2-fluoro-phenyl]-4-hydroxy-4-piperidyl]acetyl]piperazin-1-yl]phenyl]-3-[3-[[ethyl(methyl)sulfamoyl]amino]-2,6-difluoro-benzoyl]-1H-pyrrolo[2,3-b]pyridine] | 5.91 | 8.35
2 | CCN(C)S(=O)(=O)Nc1ccc(F)c(C(=O)c2c[nH]c3ncc(-c4ccn(C5CCN(C(=O)CC6(O)CCN(c7ccc(NC8CCC(=O)NC8=O)cc7F)CC6)CC5)c(=O)c4)cc23)c1F (stereo not drawn) [Example 181, 5-[1-[1-[2-[1-[4-[(2,6-dioxo-3-piperidyl)amino]-2-fluoro-phenyl]-4-hydroxy-4-piperidyl]acetyl]-4-piperidyl]-2-oxo-4-pyridyl]-3-[3-[[ethyl(methyl)sulfamoyl]amino]-2,6-difluoro-benzoyl]-1H-pyrrolo[2,3-b]pyridine] | 11.5 | 13.5
3 | CCN(C)S(=O)(=O)Nc1ccc(F)c(C(=O)c2c[nH]c3ncc(-c4cnc(N5CCC(OCC6CCN(c7ccc(NC8CCC(=O)NC8=O)cc7F)CC6)CC5)nc4)cc23)c1F (stereo not drawn) [Example 182, 5-[2-[4-[[1-[4-[(2,6-dioxo-3-piperidyl)amino]-2-fluoro-phenyl]-4-piperidyl]methoxy]-1-piperidyl]pyrimidin-5-yl]-3-[3-[[ethyl(methyl)sulfamoyl]amino]-2,6-difluoro-benzoyl]-1H-pyrrolo[2,3-b]pyridine] | 17.9 | 7.7
4 | CCN(C)S(=O)(=O)Nc1ccc(Cl)c(C(=O)c2c[nH]c3ncc(-c4cnc(N5CCN(C(=O)CC6(O)CCN(c7ccc(NC8CCC(=O)NC8=O)cc7F)CC6)CC5)nc4)cc23)c1F (stereo not drawn) [Example 185, 3-[6-chloro-3-[[ethyl(methyl)sulfamoyl]amino]-2-fluoro-benzoyl]-5-[2-[4-[2-[1-[4-[(2,6-dioxo-3-piperidyl)amino]-2-fluoro-phenyl]-4-hydroxy-4-piperidyl]acetyl]piperazin-1-yl]pyrimidin-5-yl]-1H-pyrrolo[2,3-b]pyridine] | 6.48 | 7.43
5 | CCN(C)S(=O)(=O)Nc1ccc(F)c(C(=O)c2c[nH]c3ncc(-c4cnc(N5CCN(C(=O)CC6(O)CCN(c7ccc(NC8CCC(=O)NC8=O)cc7F)CC6)CC5)c(C#N)c4)cc23)c1F (stereo not drawn) [Example 186, 5-[5-cyano-6-[4-[2-[1-[4-[(2,6-dioxo-3-piperidyl)amino]-2-fluoro-phenyl]-4-hydroxy-4-piperidyl]acetyl]piperazin-1-yl]-3-pyridyl]-3-[3-[[ethyl(methyl)sulfamoyl]amino]-2,6-difluoro-benzoyl]-1H-pyrrolo[2,3-b]pyridine] | 5.45 | 8.35
6 | CCN(C)S(=O)(=O)Nc1ccc(F)c(C(=O)c2c[nH]c3ncc(-c4ccc(N5CCN(C(=O)CC6(O)CCN(c7ccc(NC8CCC(=O)NC8=O)cc7F)CC6)CC5)cc4C)cc23)c1F (stereo not drawn) [Example 189, 5-[4-[4-[2-[1-[4-[(2,6-dioxo-3-piperidyl)amino]-2-fluoro-phenyl]-4-hydroxy-4-piperidyl]acetyl]piperazin-1-yl]-2-methyl-phenyl]-3-[3-[[ethyl(methyl)sulfamoyl]amino]-2,6-difluoro-benzoyl]-1H-pyrrolo[2,3-b]pyridine] | 58.4 | 14.9

Stronger by DC50, values ahead:

Row | DC50 [nM] | Emax [%] | Compound
7 | 4.62 | 8.93 | CCN(C)S(=O)(=O)Nc1ccc(F)c(C(=O)c2c[nH]c3ncc(-c4ccc(N5CCN(C(=O)CC6(O)CCN(c7ccc(NC8CCC(=O)NC8=O)cc7F)CC6)CC5)c(Cl)c4)cc23)c1F (stereo not drawn) [Example 180, 5-[3-chloro-4-[4-[2-[1-[4-[(2,6-dioxo-3-piperidyl)amino]-2-fluoro-phenyl]-4-hydroxy-4-piperidyl]acetyl]piperazin-1-yl]phenyl]-3-[3-[[ethyl(methyl)sulfamoyl]amino]-2,6-difluoro-benzoyl]-1H-pyrrolo[2,3-b]pyridine]
8 | 3.54 | 9.04 | CCN(C)S(=O)(=O)Nc1ccc(F)c(C(=O)c2c[nH]c3ncc(-c4ccc(N5CCN(C(=O)CC6(O)CCN(c7ccc(NC8CCC(=O)NC8=O)c(F)c7)CC6)CC5)cc4)cc23)c1F (stereo not drawn) [Example 184, 5-[4-[4-[2-[1-[4-[(2,6-dioxo-3-piperidyl)amino]-3-fluoro-phenyl]-4-hydroxy-4-piperidyl]acetyl]piperazin-1-yl]phenyl]-3-[3-[[ethyl(methyl)sulfamoyl]amino]-2,6-difluoro-benzoyl]-1H-pyrrolo[2,3-b]pyridine]
9 | 3.6 | 7.8 | CCN(C)S(=O)(=O)Nc1ccc(F)c(C(=O)c2c[nH]c3ncc(-c4cnc(N5CCN(C(=O)CC6(O)CCN(c7ccc(NC8CCC(=O)NC8=O)cc7F)CC6)CC5)cn4)cc23)c1F (stereo not drawn) [Example 187, 5-[5-[4-[2-[1-[4-[(2,6-dioxo-3-piperidyl)amino]-2-fluoro-phenyl]-4-hydroxy-4-piperidyl]acetyl]piperazin-1-yl]pyrazin-2-yl]-3-[3-[[ethyl(methyl)sulfamoyl]amino]-2,6-difluoro-benzoyl]-1H-pyrrolo[2,3-b]pyridine]
10 | 4.5 | 5.98 | CCN(C)S(=O)(=O)Nc1ccc(F)c(C(=O)c2c[nH]c3ncc(-c4cnc(N5CCN(C(=O)CC6(O)CCN(c7ccc(NC8CCC(=O)NC8=O)cc7F)CC6)CC5)c(F)c4)cc23)c1F (stereo not drawn) [Example 188, 5-[6-[4-[2-[1-[4-[(2,6-dioxo-3-piperidyl)amino]-2-fluoro-phenyl]-4-hydroxy-4-piperidyl]acetyl]piperazin-1-yl]-5-fluoro-3-pyridyl]-3-[3-[[ethyl(methyl)sulfamoyl]amino]-2,6-difluoro-benzoyl]-1H-pyrrolo[2,3-b]pyridine]
11 | 2.72 | 7.07 | O=C1CCC(Nc2ccc(N3CCC(O)(CC(=O)N4CCN(c5ccc(-c6cnc7[nH]cc(C(=O)c8c(F)ccc(NS(=O)(=O)N9CC[C@@H](F)C9)c8F)c7c6)cn5)CC4)CC3)c(F)c2)C(=O)N1 (stereo partly drawn) [Example 190, (3R)—N-[3-[5-[6-[4-[2-[1-[4-[(2,6-dioxo-3-piperidyl)amino]-2-fluoro-phenyl]-4-hydroxy-4-piperidyl]acetyl]piperazin-1-yl]-3-pyridyl]-1H-pyrrolo[2,3-b]pyridine-3-carbonyl]-2,4-difluoro-phenyl]-3-fluoro-pyrrolidine-1-sulfonamide]
12 | 3.89 | 7.76 | O=C1CCC(Nc2ccc(N3CCC(O)(CC(=O)N4CCN(c5ccc(-c6cnc7[nH]cc(C(=O)c8c(F)ccc(NS(=O)(=O)N9CC[C@@H](F)C9)c8F)c7c6)cc5)CC4)CC3)c(F)c2)C(=O)N1 (stereo partly drawn) [Example 191, (3R)—N-[3-[5-[4-[4-[2-[1-[4-[(2,6-dioxo-3-piperidyl)amino]-2-fluoro-phenyl]-4-hydroxy-4-piperidyl]acetyl]piperazin-1-yl]phenyl]-1H-pyrrolo[2,3-b]pyridine-3-carbonyl]-2,4-difluoro-phenyl]-3-fluoro-pyrrolidine-1-sulfonamide]
